# Results published in ChEMBL document CHEMBL1201862, “PubChem BioAssay data set” (2004).
# Values joined by “and” are separate entries in the source; they are usually repeats but may differ in a detail not shown here. Equal entries are not always repeated.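 Each compound was tested at five concentrations against cells in 96-well plates for 48 hours. Here, GI50 denotes the concentration required for 50% inhibition of growth.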 Active and inactive are the calls of the source. No stated cut-off is given here; in the data, active = GI50 up to about 1.1 µM and inactive = higher.
# Key:
# Assay in all cases: NCI tumour cell line growth inhibition, 48 h
# K562 = system: K562
# OVCAR-4 = system: OVCAR-4
# COLO 205 = system: COLO 205
# SW-620 = system: SW-620
# T47D = system: T47D
# M14 = system: M14
# ACHN = system: ACHN
# SF-539 = system: SF-539
# HT-29 = system: HT-29
# SF-268 = system: SF-268
# NCI-H226 = system: NCI-H226
# UACC-257 = system: UACC-257
# U-251 = system: U-251
# IGROV-1 = system: IGROV-1
# SK-MEL-2 = system: SK-MEL-2
# DU-145 = system: DU-145
# LOX IMVI = system: LOX IMVI
# MDA-MB-231 = system: MDA-MB-231
# MDA-N = system: MDA-N
# CAKI-1 = system: CAKI-1
# SR = system: SR
# OVCAR-3 = system: OVCAR-3
# SK-MEL-5 = system: SK-MEL-5
# Malme-3M = system: Malme-3M
# MCF7 = system: MCF7
# HCT-15 = system: HCT-15
# HL-60 = system: HL-60
# UACC-62 = system: UACC-62
# CCRF-CEM = system: CCRF-CEM
# SF-295 = system: SF-295
# NCI-H522 = system: NCI-H522
# OVCAR-5 = system: OVCAR-5
# OVCAR-8 = system: OVCAR-8
# RXF 393 = system: RXF 393
# SNB-19 = system: SNB-19
# SK-MEL-28 = system: SK-MEL-28
# A498 = system: A498
# HCC 2998 = system: HCC 2998
# SN12C = system: SN12C
# SNB-75 = system: SNB-75
# NCI-H460 = system: NCI-H460
# SK-OV-3 = system: SK-OV-3
# TK-10 = system: TK-10
# UO-31 = system: UO-31
structure (smiles),measurement,setting,value
OCC(O)C(O)C(O)C(/C=N\Nc1ncnc2c(Br)cc(Br)cc12)=N/Nc1ncnc2c(Br)cc(Br)cc12 (configuration not stated),GI50,K562,5.07 µM (inactive) and 5.15 µM (inactive)
same,GI50,OVCAR-4,2.81 µM (inactive) and 3.27 µM (inactive)
same,GI50,COLO 205,3.17 µM (inactive) and 3.52 µM (inactive)
same,GI50,SW-620,5460 nM (inactive)
same,GI50,T47D,2.57 µM (inactive) and 2.62 µM (inactive)
same,GI50,M14,8.2 µM (inactive) and 8.38 µM (inactive)
same,GI50,ACHN,5.58 µM (inactive) and 6.35 µM (inactive)
same,GI50,SF-539,8850 nM (inactive)
same,GI50,HT-29,4.84 µM (inactive) and 4.55 µM (inactive)
same,GI50,SF-268,3.78 µM (inactive) and 3.15 µM (inactive)
same,GI50,NCI-H226,3580 nM (inactive)
same,GI50,UACC-257,8.15 µM (inactive) and 12.9 µM (inactive)
same,GI50,U-251,2.49 µM (inactive) and 4.46 µM (inactive)
same,GI50,IGROV-1,4.71 µM (inactive) and 2.49 µM (inactive)
same,GI50,SK-MEL-2,5.41 µM (inactive) and 3.27 µM (inactive)
same,GI50,DU-145,5.9 µM (inactive) and 3.42 µM (inactive)
same,GI50,LOX IMVI,6.43 µM (inactive) and 10.1 µM (inactive)
same,GI50,MDA-MB-231,3.67 µM (inactive) and 3.79 µM (inactive)
same,GI50,MDA-N,7.46 µM (inactive) and 6.08 µM (inactive)
same,GI50,CAKI-1,4.85 µM (inactive) and 6.34 µM (inactive)
same,GI50,SR,3.4 µM (inactive) and 5.25 µM (inactive)
same,GI50,OVCAR-3,4.28 µM (inactive) and 2.88 µM (inactive)
same,GI50,SK-MEL-5,3.45 µM (inactive) and 4.71 µM (inactive)
same,GI50,Malme-3M,6.4 µM (inactive) and 3.76 µM (inactive)
same,GI50,MCF7,1.24 µM (inactive) and 817 nM (active)
O=C(N/N=C/c1cc(Cl)cc(Cl)c1O)c1ccccc1O,GI50,K562,977 nM (active)
same,GI50,HCT-15,460 nM
same,GI50,HL-60,221 nM (active)
same,GI50,SW-620,601 nM (active)
same,GI50,M14,847 nM (active)
same,GI50,ACHN,447 nM (active)
same,GI50,UACC-62,323 nM (active)
same,GI50,CCRF-CEM,279 nM (active)
same,GI50,SF-295,721 nM (active)
same,GI50,HT-29,3.65 µM (inactive)
same,GI50,SF-268,480 nM (active)
same,GI50,NCI-H522,441 nM (active)
same,GI50,OVCAR-5,2080 nM (inactive)
same,GI50,UACC-257,2.04 µM (inactive)
same,GI50,U-251,849 nM (active)
same,GI50,OVCAR-8,198 nM (active)
same,GI50,IGROV-1,2.62 µM (inactive)
same,GI50,RXF 393,946 nM (active)
same,GI50,LOX IMVI,398 nM (active)
same,GI50,SNB-19,3180 nM (inactive)
same,GI50,SK-MEL-28,1310 nM (inactive)
same,GI50,A498,7500 nM (inactive)
same,GI50,HCC 2998,2170 nM (inactive)
same,GI50,SN12C,2360 nM (inactive)
same,GI50,SR,388 nM (active)
same,GI50,OVCAR-3,305 nM (active)
same,GI50,SNB-75,2440 nM (inactive)
same,GI50,NCI-H460,656 nM (active)
same,GI50,SK-MEL-5,1.57 µM (inactive)
same,GI50,SK-OV-3,687 nM (active)
same,GI50,TK-10,2230 nM (inactive)
same,GI50,UO-31,2880 nM (inactive)
